# Laboratory results: EP3553061A1, “NEW INHIBITORS OF BONE RESORPTION” (CENTRE NATIONAL DE LA RECHERCHE SCIENTIFIQUE (CNRS), priority 2018, dated 2019)
# “And” between values parts separate entries of the source, which are not always exact repeats. Equal entries are not always repeated. Where two headings read alike, the source gives them in different places.
# Target: T1, human Dock5 (Homo sapiens, UniProt Q9H7D0)
# T1 construct: plasmid expressing the catalytic DHR2 domain of mouse or human Dock5; expressed in transfected cells; host or cells: 293T cells
# T1 sequence (Q9H7D0 1231-1642 limits assumed): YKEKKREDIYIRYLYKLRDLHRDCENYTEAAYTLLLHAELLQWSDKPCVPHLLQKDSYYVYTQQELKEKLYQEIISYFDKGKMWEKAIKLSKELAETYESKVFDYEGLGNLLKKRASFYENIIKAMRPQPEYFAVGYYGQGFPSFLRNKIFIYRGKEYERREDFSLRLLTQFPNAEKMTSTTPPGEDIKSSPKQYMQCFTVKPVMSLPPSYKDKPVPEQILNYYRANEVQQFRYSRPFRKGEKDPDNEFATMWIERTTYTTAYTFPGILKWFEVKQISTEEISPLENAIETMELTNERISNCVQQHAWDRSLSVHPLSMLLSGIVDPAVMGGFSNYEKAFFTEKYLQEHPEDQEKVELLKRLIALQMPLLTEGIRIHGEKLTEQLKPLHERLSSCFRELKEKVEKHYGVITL
# Test: Pull down assay of Rac activation by human Dock5 DHR2 in transfected 293T cells
# Format: cell-based
# Conditions: for IC50: 1 hour treatment; for inhibition at 100 µM: read-out: Inhibition
# Experimental: Compounds E73, E88 and E78 were tested for their inhibiting effect of the activation of Rac by mouse Dock5 of and for certain human Dock5 according to a screening test using a pull down assay as represented in Figure 1.
# Methodology (Figure 1): cells 293T seeded onto 100 mm diameter plates in a DMEM culture medium containing 10% serum in an incubator in 5.5% CO2 humidified atmosphere at 37°C. When they reach the density of 5x10^6 cells per plate, cells are transfected with 8 µg of plasmid expressing the catalytic DHR2 domain of mouse or human Dock5 in order to activate endogenous GTPase Rac. After 24 hours, the cells are lifted using trypsin and are seeded 10^6 per well in 6-well plates of 35 mms in diameter. The following day, the cells are put in contact during one hour with the compound, in a mother solution at 20 mM into 100% DMSO, to a test concentration of 100 µM into 0.5% DMSO in the DMEM medium containing 0.1% of BSA. The basal activation of Rac by Dock5 is measured from the cells treated with 0.5% DMSO. After treatment, the cells are observed under the optical microscope to make sure of the absence of any toxic effect of the compound. If cell suffering is detected, the test is invalidated and the compound is retested at a lower dosage. The cells are then lysed in 100 µl of the pull down buffer (10% glycerol, 50 mm Tris pH 7.4, 100 mM NaCl, 1% IGEPAL® CA-630 (SIGMA I3021), 2 mM MgCl2 supplemented with proteases inhibitors) and the lysate is incubated during one hour with 20 µg of sepharose beads coupled with the fusion protein GST-PAK-CRIB, which binds specifically the activated form of GTPase Rac, which is bound to GTP. After centrifugation and washings, the proteins associated with the beads, including active Rac GTPase, are denatured and loaded on an SDS PAGE gel. […] For each compound tested, the level of active Rac GTPase is quantified using the Image J software and is normalized to the concentration of total protein in the whole cell lysate. The efficiency of the molecule is defined by the level of active Rac after treatment compared to the level of active Rac in the cells treated with DMSO (control). An activity is considered as inhibitory if the level of Rac activation decreases by at least 10%, 20%, in particular at least 30%, 40%, and preferably at least 50% compared to the control treated with DMSO (Table 1).
# The same approach was used to test the potency of molecules of the 48ED family, on the activity of human Dock5 DHR2 (Table 2). Table 2: Inhibitory activity of the compounds of the 48ED family on human Dock5 activity.
# [1] = HEK-293T, Table 3, human Dock5, at 50µM
# [2] = Table 3, human Dock5, test concentration 100 µM, 1 hour, replicate values, 100 µM
# [3] = HEK-293T, Table 3, human Dock5, test concentration 100 µM, 1 hour, replicate values
# [4] = Table 2, human Dock5 DHR2, test concentration 100 µM, 1 hour, replicate values, Negative = Rac activation does not decrease, 100 µM
# [5] = HEK-293T, Table 2, human Dock5 DHR2, test concentration 100 µM, 1 hour, replicate values, Negative = Rac activation does not decrease
# [6] = Table 2, human Dock5 DHR2, test concentration 100 µM, 1 hour, replicate values, Negative = Rac activation does not decrease
# [7] = Table 3, human Dock5, test concentration 100 µM, 1 hour, replicate values
smiles,measurement,setting,value
"O=S1(=O)N(c2ccccc2)C[C@H](O)[C@]12CCN(Cc1ccccc1Cl)C2 (racemic) [E196, rac-(4S,5R)-7-(2-chlorobenzyl)-4-hydroxy-2-phenyl-1-thia-2,7-diazaspiro[4.4]nonane 1,1-dioxide]",inhibition at 50 µM,[1],40%
same,Inhibition,[2],95% (2×) and 35%
same,IC50,human Dock5,35 µM
"O=S1(=O)N(c2ccccc2)C[C@H](O)[C@]12CCN(Cc1cnc3ccccc3c1)C2 (racemic) [E203, rac-(4S,5R)-4-hydroxy-2-phenyl-7-(quinolin-3-ylmethyl)-1-thia-2,7-diazaspiro[4.4]nonane 1,1-dioxide]",inhibition at 50 µM,[1],95%
same,Inhibition,"Table 3, human Dock5, at 50µM",90%
same,IC50,human Dock5,22 µM
"Cn1cc(CN2CC[C@@]3(C2)[C@@H](O)CN(c2ccccc2)S3(=O)=O)c2ccccc21 (racemic) [E204, rac-(4S,5R)-4-hydroxy-7-((1-methyl-1H-indol-3-yl)methyl)-2-phenyl-1-thia-2,7-diazaspiro[4.4]nonane 1,1-dioxide]",inhibition at 50 µM,[1],60%
same,inhibition at 100 µM,[3],100%
same,Inhibition,[2],95%
same,IC50,human Dock5,33 µM
"O=S1(=O)N(c2ccccc2)C[C@H](O)[C@]12CCN(Cc1cc3ccccc3o1)C2 (racemic) [E205, rac-(4S,5R)-7-(benzofuran-2-ylmethyl)-4-hydroxy-2-phenyl-1-thia-2,7-diazaspiro[4.4]nonane 1,1-dioxide]",inhibition at 50 µM,[1],70%
same,inhibition at 100 µM,[3],100%
same,IC50,human Dock5,43 µM
"O=S1(=O)N(c2ccccc2)C[C@H](O)[C@]12CCN(Cc1ccc3c(c1)CCC3)C2 (racemic) [E210, rac-(4S,5R)-7-((2,3-dihydro-1H-inden-5-yl)methyl)-4-hydroxy-2-phenyl-1-thia-2,7-diazaspiro[4.4]nonane 1,1-dioxide]",inhibition at 50 µM,[1],85%
same,IC50,human Dock5,32 µM
"COc1ccc(CN2CC[C@@]3(C2)[C@@H](O)CN(c2ccccc2)S3(=O)=O)cc1F (racemic) [E211, rac-(4S,5R)-7-(3-fluoro-4-methoxybenzyl)-4-hydroxy-2-phenyl-1-thia-2,7-diazaspiro[4.4]nonane 1,1-dioxide]",inhibition at 50 µM,[1],90%
same,IC50,human Dock5,44 µM
O=S1(=O)N(c2ccccc2)C[C@H](O)[C@]12CCN(Cc1ccccc1)C2 [E118],Inhibition,[4],85% (2×) and 60% and 55%
O=S1(=O)N(c2ccccc2)C[C@@H](O)[C@]12CCN(Cc1ccccc1)C2 [E119],inhibition at 100 µM,[5],25%
CN1C[C@H](O)[C@]2(CCN(Cc3ccccc3)C2)S1(=O)=O [E120],Inhibition,[6],Negative
CN1C[C@@H](O)[C@]2(CCN(Cc3ccccc3)C2)S1(=O)=O [E121],Inhibition,[6],Negative
O=S1(=O)N(c2ccccc2)C[C@H](O)[C@]12CCNC2 [E123],inhibition at 100 µM,[5],10%
CO[C@H]1CN(C)S(=O)(=O)[C@@]12CCN(Cc1ccccc1)C2 [E124],Inhibition,[6],Negative
CO[C@@H]1CN(C)S(=O)(=O)[C@@]12CCN(Cc1ccccc1)C2 [E125],Inhibition,[6],Negative
CN1C[C@H](Oc2ccccn2)[C@]2(CCN(Cc3ccccc3)C2)S1(=O)=O [E126],inhibition at 100 µM,[5],10%
O=S1(=O)N(c2ccccc2)C[C@H](O)[C@]12CCN(Cc1ccc(F)cc1)C2 [E127],Inhibition,[4],40% and 50% and 85% and 90%
O=S1(=O)N(c2ccccc2)C[C@H](O)[C@]12CCN(Cc1cccc(C(F)(F)F)c1)C2 [E128],inhibition at 50 µM,"HEK-293T, Table 2, human Dock5 DHR2, at 50µM",70%
same,inhibition at 100 µM,[5],90%
N#Cc1ccc(CN2CC[C@@]3(C2)[C@@H](O)CN(c2ccccc2)S3(=O)=O)cc1 [E129],Inhibition,[4],70% and 90% and 95%
CS(=O)(=O)c1ccc(CN2CC[C@@]3(C2)[C@@H](O)CN(c2ccccc2)S3(=O)=O)cc1 [E131],Inhibition,[4],50% and 70% and 90%
O=S1(=O)N(c2ccccc2)C[C@H](O)[C@]12CCN(Cc1ccc3ccccc3c1)C2 [E132],inhibition at 10 µM,"HEK-293T, Table 2, human Dock5 DHR2, at 10µM",50%
same,inhibition at 100 µM,[5],70%
same,Inhibition,"Table 2, human Dock5 DHR2, at 10µM",60%
CC(=O)N1CC[C@@]2(C1)[C@@H](O)CN(c1ccccc1)S2(=O)=O [E133],inhibition at 100 µM,[5],5%
O=C(CC1CCCC1)N1CC[C@@]2(C1)[C@@H](O)CN(c1ccccc1)S2(=O)=O [E135],Inhibition,[4],70% and 50% and 95%
Cc1cc(C(=O)N2CC[C@@]3(C2)[C@@H](O)CN(c2ccccc2)S3(=O)=O)no1 [E136],inhibition at 100 µM,[5],30%
O=C(c1ccccc1)N1CC[C@@]2(C1)[C@@H](O)CN(c1ccccc1)S2(=O)=O [E137],Inhibition,[4],70% and 40% and 15%
CS(=O)(=O)N1CC[C@@]2(C1)[C@@H](O)CN(c1ccccc1)S2(=O)=O [E138],inhibition at 100 µM,[5],30%
O=S1(=O)N(c2ccccc2)C[C@@H](O)[C@]12CCN(Cc1ccccc1F)C2 [E139],Inhibition,[4],60% and 10%
COC(=O)c1ccc(CN2CC[C@@]3(C2)[C@H](O)CN(c2ccccc2)S3(=O)=O)cc1 [E140],inhibition at 100 µM,[5],50%
O=S1(=O)N(c2ccccc2)C[C@H](O)[C@]12CCN(CC1CCCCC1)C2 [E198],Inhibition,[2],95% and 10% and 85%
Cc1noc(C)c1CN1CC[C@@]2(C1)[C@@H](O)CN(c1ccccc1)S2(=O)=O [E199],inhibition at 100 µM,[3],40%
same,Inhibition,[7],40% / 40%
Cn1cc(CN2CC[C@@]3(C2)[C@@H](O)CN(c2ccccc2)S3(=O)=O)cn1 [E201],Inhibition,[2],60% and 10% (2×)
O=S1(=O)N(c2ccccc2)C[C@H](O)[C@]12CCN(Cc1ccc3c(c1)OCO3)C2 [E206],Inhibition,[2],50% and 100% and 70%
O=S1(=O)N(c2ccccc2)C[C@H](O)[C@]12CCN(C1CCCCCC1)C2 [E207],inhibition at 100 µM,[3],20%
O=S1(=O)N(c2ccccc2)C[C@H](O)[C@]12CCN(Cc1cccs1)C2 [E208],inhibition at 100 µM,[3],35%
COc1cc(CN2CC[C@@]3(C2)[C@@H](O)CN(c2ccccc2)S3(=O)=O)cc(OC)c1 [E209],inhibition at 100 µM,[3],35%
O=S1(=O)N(c2ccccc2)C[C@H](O)[C@]12CCN(Cc1ccc3[nH]ccc3c1)C2 [E212],inhibition at 100 µM,[3],98%
same,Inhibition,[2],100%
CN(C)c1ccc(CN2CC[C@@]3(C2)[C@@H](O)CN(c2ccccc2)S3(=O)=O)cc1 [E213],inhibition at 100 µM,[3],90%
same,Inhibition,[7],90%/ 90%
N#Cc1cccc(CN2CC[C@@]3(C2)[C@@H](O)CN(c2ccccc2)S3(=O)=O)c1 [E214],Inhibition,[2],90% and 50%
O=S1(=O)N(c2ccccc2)C[C@H](O)[C@]12CCN(CCc1ccccc1)C2 [E217],inhibition at 100 µM,[5],25%
O=S1(=O)N(Cc2ccccc2)C[C@H](Oc2ccccn2)[C@]12CCN(Cc1ccccc1)C2 [E224],inhibition at 100 µM,[3],20%
CO[C@H]1CN(Cc2ccccc2)S(=O)(=O)[C@@]12CCN(Cc1ccccc1)C2 [E225],inhibition at 100 µM,[3],35%
"O=C1N(c2cccc(F)c2)CCC12CCN(Cc1cccc(Cl)c1)C2 (stereo not drawn) [E226, 7-(3-chlorobenzyl)-2-(3-fluorophenyl)-2,7-diazaspiro[4.4]nonan-1-one]",inhibition at 50 µM,[1],55%
same,IC50,human Dock5,20 µM
COc1ccc(N2CCC3(CCN(Cc4cccc(Cl)c4)C3)C2=O)cc1OC (stereo not drawn) [E227],Inhibition,[2],90% and 50% and 60%
"COc1ccc(N2CCC3(CCN(Cc4cccc(Cl)c4)C3)C2=O)cc1C (stereo not drawn) [E228, 7-(3-chlorobenzyl)-2-(4-methoxy-3-methylphenyl)-2,7-diazaspiro[4.4]nonan-1-one]",inhibition at 50 µM,[1],65%
same,IC50,human Dock5,8 µM
O=S1(=O)N(c2ccccc2)C[C@H](OCCO)[C@]12CCN(Cc1ccccc1)C2 [E229],inhibition at 50 µM,[1],65%
CNC(=O)CO[C@H]1CN(c2ccccc2)S(=O)(=O)[C@@]12CCN(Cc1ccccc1)C2 [E230],Inhibition,[2],80% and 45% and 30% and 70%
